Assay results from ChEMBL document CHEMBL1201862, “PubChem BioAssay data set” (2004).
Blank lines part the entries; values can stand above or below the compound they belong to. Calls of active or inactive are those of the source.

Assays:
[1] = biological target: T1, Trace amine-associated receptor 1 (Homo sapiens, UniProt Q96RJ0); assay: Fluorescence-based cell-based high throughput dose response assay to identify agonists of the human trace amine associated receptor 1 (TAAR1).; assay type: functional
T1 sequence (Q96RJ0 whole entry): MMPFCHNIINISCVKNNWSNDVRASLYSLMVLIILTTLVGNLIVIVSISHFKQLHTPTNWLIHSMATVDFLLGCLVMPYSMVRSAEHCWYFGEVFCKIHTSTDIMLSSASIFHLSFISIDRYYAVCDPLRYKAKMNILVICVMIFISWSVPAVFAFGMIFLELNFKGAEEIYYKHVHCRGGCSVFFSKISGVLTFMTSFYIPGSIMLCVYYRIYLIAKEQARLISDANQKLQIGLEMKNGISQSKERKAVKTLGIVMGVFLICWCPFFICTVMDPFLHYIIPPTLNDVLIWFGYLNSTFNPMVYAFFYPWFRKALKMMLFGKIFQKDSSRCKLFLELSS

[2] = biological target: T1, Trace amine-associated receptor 1; assay: Counterscreen for agonists of the human trace amine associated receptor 1 (hTAAR1): Fluorescence-based cell-based high throughput dose response assay to identify hTAAR1 agonist that also desensitize TAAR1 receptor response.; assay type: functional
cells [3] = assay type: functional, cell-based
[4] = biological target: T2, High affinity choline transporter 1 (Homo sapiens, UniProt Q9GZV3); assay: CHT activators, dose response, cell-based, 10-point CRC, membrane potential dye (AID 602376); assay type: functional
T2 sequence (Q9GZV3 whole entry): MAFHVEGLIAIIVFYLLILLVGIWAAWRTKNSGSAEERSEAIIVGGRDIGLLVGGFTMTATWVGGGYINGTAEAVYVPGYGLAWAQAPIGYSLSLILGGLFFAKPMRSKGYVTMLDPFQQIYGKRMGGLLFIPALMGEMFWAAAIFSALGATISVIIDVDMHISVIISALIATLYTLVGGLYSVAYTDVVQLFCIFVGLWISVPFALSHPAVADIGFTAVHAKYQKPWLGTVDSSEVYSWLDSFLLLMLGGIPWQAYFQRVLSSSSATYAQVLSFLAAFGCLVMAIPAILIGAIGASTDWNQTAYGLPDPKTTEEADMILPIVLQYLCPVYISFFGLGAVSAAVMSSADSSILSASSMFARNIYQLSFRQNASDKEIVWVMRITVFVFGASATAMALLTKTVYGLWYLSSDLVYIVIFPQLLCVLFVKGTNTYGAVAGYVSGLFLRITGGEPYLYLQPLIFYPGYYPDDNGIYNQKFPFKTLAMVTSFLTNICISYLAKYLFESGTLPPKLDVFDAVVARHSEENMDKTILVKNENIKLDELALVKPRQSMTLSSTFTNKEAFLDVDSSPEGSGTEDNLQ

cells [5] = assay type: functional, cell-based; remark: listed apart in the source
[6] = biological target: Sphingosine 1-phosphate receptor 2 (Homo sapiens, UniProt O95136); assay: Late-stage fluorescence-based dose-response cell-based counterscreen assay to identify agonists of the Sphingosine 1-Phosphate Receptor 3 (S1P3): Sphingosine 1-Phosphate Receptor 2 (S1P2) agonist assay.; assay type: functional
[7] = biological target: Sphingosine 1-phosphate receptor 4 (Homo sapiens, UniProt O95977); assay: Late-stage fluorescence-based dose-response cell-based counterscreen assay to identify agonists of the Sphingosine 1-Phosphate Receptor 3 (S1P3): Sphingosine 1-Phosphate Receptor 4 (S1P4) agonist assay.; assay type: functional
[8] = biological target: Tyrosine-protein kinase BTK (Homo sapiens, UniProt Q06187); assay type: functional
[9] = biological target: Mitogen-activated protein kinase kinase kinase kinase 4 (Homo sapiens, UniProt O95819); assay type: functional
Sequence of Mitogen-activated protein kinase kinase kinase kinase 4 (O95819 whole entry): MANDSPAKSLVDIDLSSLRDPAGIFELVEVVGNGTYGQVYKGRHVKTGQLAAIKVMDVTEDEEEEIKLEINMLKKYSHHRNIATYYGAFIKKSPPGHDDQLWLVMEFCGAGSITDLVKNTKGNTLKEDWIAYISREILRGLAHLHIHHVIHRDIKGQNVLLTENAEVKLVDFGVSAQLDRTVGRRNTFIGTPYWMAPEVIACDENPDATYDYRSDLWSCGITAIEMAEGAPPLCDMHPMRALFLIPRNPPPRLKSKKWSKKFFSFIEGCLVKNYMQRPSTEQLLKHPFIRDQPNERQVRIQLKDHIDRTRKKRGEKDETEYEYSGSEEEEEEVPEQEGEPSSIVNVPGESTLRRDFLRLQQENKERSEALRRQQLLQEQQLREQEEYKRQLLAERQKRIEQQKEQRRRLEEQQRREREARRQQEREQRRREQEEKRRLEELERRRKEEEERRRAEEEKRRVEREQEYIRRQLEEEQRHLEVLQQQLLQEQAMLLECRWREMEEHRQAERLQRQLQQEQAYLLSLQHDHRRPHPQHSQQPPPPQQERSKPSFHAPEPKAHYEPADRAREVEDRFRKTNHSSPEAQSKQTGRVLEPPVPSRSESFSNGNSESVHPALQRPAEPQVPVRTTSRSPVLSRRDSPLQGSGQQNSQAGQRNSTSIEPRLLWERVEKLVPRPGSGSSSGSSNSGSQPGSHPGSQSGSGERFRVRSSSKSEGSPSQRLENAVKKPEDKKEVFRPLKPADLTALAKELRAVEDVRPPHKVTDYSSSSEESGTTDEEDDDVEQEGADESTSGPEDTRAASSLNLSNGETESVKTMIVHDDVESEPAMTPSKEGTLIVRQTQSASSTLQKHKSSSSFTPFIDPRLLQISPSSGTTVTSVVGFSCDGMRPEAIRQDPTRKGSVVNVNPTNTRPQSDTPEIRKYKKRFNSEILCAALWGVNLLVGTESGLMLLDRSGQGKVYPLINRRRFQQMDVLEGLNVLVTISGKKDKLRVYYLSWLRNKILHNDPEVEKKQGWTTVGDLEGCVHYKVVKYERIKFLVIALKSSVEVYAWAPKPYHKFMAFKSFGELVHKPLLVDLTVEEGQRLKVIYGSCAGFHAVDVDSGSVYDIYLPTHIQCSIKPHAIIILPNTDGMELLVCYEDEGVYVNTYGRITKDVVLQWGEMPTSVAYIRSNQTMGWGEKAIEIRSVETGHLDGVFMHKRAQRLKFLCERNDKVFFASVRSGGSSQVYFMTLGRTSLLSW

[10] = biological target: Dual specificity mitogen-activated protein kinase kinase 2 (Homo sapiens, UniProt P36507); assay: Navigating the Kinome. Panel member name: MAP2K2; assay type: functional
[11] = biological target: ALK tyrosine kinase receptor (Homo sapiens, UniProt Q9UM73); assay type: functional;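 note: ALK tested as one member of a kinase panel screen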
[12] = biological target: Cyclin-dependent kinase 8 (Homo sapiens, UniProt P49336); assay: Navigating the Kinome. Panel member name: CDK8; assay type: functional
Sequence of Cyclin-dependent kinase 8 (P49336 whole entry): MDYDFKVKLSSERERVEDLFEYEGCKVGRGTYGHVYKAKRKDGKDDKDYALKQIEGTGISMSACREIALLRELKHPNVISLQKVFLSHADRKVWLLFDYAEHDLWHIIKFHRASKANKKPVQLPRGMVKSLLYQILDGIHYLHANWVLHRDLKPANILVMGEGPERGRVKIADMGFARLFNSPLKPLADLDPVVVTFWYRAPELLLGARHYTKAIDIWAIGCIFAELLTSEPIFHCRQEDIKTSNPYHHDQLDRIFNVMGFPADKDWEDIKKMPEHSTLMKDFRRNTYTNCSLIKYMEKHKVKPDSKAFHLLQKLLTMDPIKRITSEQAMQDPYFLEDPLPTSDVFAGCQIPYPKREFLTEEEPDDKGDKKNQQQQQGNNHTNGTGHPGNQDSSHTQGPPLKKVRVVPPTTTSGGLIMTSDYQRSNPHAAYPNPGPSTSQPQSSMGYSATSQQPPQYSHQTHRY

[13] = biological target: Serine/threonine-protein kinase PAK 4 (Homo sapiens, UniProt O96013); assay type: functional;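 note: value obtained within a kinome profiling panel in which PAK4 was one of the panel members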
Activated CDC42 kinase 1 = Activated CDC42 kinase 1 (Homo sapiens, UniProt Q07912); assay: Navigating the Kinome. Panel member name: ACK1; assay type: functional
[14] = biological target: Glycogen synthase kinase-3 alpha (Homo sapiens, UniProt P49840); assay type: functional;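 note: GSK3A result taken from a broad kinome-wide kinase panel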
[15] = biological target: Ribosomal protein S6 kinase alpha-3 (Homo sapiens, UniProt P51812); assay type: functional;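 note: measured within a kinome-wide profiling panel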
[16] = biological target: Protein kinase C theta type (Homo sapiens, UniProt Q04759); assay: Navigating the Kinome. Panel member name: PRKCQ; assay type: functional
[17] = biological target: Dual specificity tyrosine-phosphorylation-regulated kinase 1B (Homo sapiens, UniProt Q9Y463); assay: Navigating the Kinome. Panel member name: DYRK1B; assay type: functional
[18] = biological target: Serine/threonine-protein kinase TBK1 (Homo sapiens, UniProt Q9UHD2); assay: Navigating the Kinome. Panel member name: TBK1; assay type: functional
Sequence of Serine/threonine-protein kinase TBK1 (Q9UHD2 whole entry): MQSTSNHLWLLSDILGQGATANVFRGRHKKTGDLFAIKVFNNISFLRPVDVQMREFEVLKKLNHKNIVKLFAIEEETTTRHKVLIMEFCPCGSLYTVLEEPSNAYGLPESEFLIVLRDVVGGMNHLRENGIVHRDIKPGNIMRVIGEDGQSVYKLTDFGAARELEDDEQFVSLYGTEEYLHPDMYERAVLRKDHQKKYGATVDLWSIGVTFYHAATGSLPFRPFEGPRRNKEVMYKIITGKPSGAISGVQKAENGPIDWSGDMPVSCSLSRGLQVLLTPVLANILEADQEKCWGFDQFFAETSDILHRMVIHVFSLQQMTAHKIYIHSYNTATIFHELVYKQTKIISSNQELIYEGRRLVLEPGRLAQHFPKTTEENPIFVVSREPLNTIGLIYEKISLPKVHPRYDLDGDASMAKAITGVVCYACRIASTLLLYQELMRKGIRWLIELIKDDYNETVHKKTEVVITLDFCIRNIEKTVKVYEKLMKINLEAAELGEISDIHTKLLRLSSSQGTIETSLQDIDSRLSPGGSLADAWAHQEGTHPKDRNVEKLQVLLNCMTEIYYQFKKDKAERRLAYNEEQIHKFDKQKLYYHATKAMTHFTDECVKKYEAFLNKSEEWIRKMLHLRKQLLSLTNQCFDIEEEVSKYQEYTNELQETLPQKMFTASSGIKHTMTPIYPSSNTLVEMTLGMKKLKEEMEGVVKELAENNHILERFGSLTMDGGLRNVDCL

[19] = biological target: Mitogen-activated protein kinase kinase kinase kinase 2 (Homo sapiens, UniProt Q12851); assay type: functional;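 note: measured as one member of a kinome-wide kinase panel, with MAP4K2 as the panel entry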
Sequence of Mitogen-activated protein kinase kinase kinase kinase 2 (Q12851 whole entry): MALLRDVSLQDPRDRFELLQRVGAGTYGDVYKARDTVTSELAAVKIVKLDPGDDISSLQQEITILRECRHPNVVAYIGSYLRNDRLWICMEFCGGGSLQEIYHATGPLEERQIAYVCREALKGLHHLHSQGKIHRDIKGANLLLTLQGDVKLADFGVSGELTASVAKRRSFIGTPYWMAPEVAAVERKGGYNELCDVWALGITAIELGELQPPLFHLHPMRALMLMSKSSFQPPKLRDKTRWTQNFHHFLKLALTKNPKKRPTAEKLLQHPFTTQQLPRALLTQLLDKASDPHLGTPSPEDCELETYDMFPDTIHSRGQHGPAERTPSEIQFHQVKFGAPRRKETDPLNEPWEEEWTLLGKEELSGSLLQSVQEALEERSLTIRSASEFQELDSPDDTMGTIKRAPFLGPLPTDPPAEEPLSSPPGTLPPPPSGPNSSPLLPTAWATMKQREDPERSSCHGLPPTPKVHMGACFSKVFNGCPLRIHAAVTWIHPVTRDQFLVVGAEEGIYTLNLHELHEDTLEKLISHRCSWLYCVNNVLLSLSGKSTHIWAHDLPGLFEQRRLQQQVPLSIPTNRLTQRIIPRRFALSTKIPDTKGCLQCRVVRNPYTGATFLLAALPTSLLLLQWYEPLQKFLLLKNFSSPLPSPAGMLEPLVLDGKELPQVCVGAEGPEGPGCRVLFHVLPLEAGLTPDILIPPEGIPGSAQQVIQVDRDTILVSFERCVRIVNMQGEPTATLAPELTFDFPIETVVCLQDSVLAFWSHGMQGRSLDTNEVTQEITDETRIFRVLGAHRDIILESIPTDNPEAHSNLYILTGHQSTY

[20] = biological target: Inhibitor of nuclear factor kappa-B kinase subunit epsilon (Homo sapiens, UniProt Q14164); assay: Navigating the Kinome. Panel member name: IKBKE; assay type: functional
[21] = biological target: Mitogen-activated protein kinase 8 (Homo sapiens, UniProt P45983); assay type: functional;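 note: value comes from one member of a kinome-wide kinase profiling panel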
[22] = biological target: Macrophage colony-stimulating factor 1 receptor (Homo sapiens, UniProt P07333); assay type: functional;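 note: value comes from the Navigating the Kinome screening panel, CSF1R member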
[23] = biological target: Vascular endothelial growth factor receptor 1 (Homo sapiens, UniProt P17948); assay type: functional;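 note: measured within a kinome-wide profiling panel, FLT1 as the panel member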
[24] = biological target: Leukocyte tyrosine kinase receptor (Homo sapiens, UniProt P29376); assay: Navigating the Kinome. Panel member name: LTK; assay type: functional
[25] = biological target: Cyclin-dependent kinase 7 (Homo sapiens, UniProt P50613); assay type: functional;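 note: value comes from a kinome-wide kinase profiling panel in which CDK7 is one member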
Sequence of Cyclin-dependent kinase 7 (P50613 whole entry): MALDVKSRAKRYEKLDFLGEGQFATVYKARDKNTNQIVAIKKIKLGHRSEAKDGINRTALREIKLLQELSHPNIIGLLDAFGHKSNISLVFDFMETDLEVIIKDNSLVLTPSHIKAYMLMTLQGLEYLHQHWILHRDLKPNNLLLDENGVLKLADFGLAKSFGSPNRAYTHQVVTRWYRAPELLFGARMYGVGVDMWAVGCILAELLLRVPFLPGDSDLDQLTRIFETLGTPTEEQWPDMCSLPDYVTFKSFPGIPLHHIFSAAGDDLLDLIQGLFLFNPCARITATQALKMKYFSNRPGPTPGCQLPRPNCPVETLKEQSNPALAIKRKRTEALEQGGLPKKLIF

Activin receptor type-1 = Activin receptor type-1 (Homo sapiens, UniProt Q04771); assay: Navigating the Kinome. Panel member name: ACVR1; assay type: functional
Aurora kinase B = Aurora kinase B (Homo sapiens, UniProt Q96GD4); assay type: functional
[26] = biological target: Dual specificity mitogen-activated protein kinase kinase 1 (Homo sapiens, UniProt Q02750); assay: Navigating the Kinome. Panel member name: MAP2K1; assay type: functional
Sequence of Dual specificity mitogen-activated protein kinase kinase 1 (Q02750 whole entry): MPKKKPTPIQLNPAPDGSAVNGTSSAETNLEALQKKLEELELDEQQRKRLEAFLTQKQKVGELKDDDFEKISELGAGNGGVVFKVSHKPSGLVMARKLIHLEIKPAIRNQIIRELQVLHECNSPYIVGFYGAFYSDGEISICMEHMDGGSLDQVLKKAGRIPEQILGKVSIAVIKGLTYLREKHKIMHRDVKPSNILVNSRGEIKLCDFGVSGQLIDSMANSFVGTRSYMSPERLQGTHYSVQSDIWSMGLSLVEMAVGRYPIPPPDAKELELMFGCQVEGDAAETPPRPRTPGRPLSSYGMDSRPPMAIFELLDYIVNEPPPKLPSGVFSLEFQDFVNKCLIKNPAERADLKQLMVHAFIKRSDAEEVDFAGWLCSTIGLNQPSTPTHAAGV

[27] = biological target: Rho-associated protein kinase 1 (Homo sapiens, UniProt Q13464); assay type: functional;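 note: measured within a broad kinome-wide panel profiling many kinases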
[28] = biological target: Cyclin-dependent kinase 5 (Homo sapiens, UniProt Q00535); assay type: functional;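 note: CDK5 measured as one member of a kinase profiling panel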
[29] = biological target: Tyrosine-protein kinase receptor TYRO3 (Homo sapiens, UniProt Q06418); assay type: functional;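 note: TYRO3 value obtained as one member of a kinome-wide profiling panel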
[30] = biological target: 5'-AMP-activated protein kinase catalytic subunit alpha-1 (Homo sapiens, UniProt Q13131); assay type: functional
[31] = biological target: Mitogen-activated protein kinase 9 (Homo sapiens, UniProt P45984); assay type: functional;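 note: value from a kinome panel profiling assay, MAPK9 panel entry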
Focal adhesion kinase 1 = Focal adhesion kinase 1 (Homo sapiens, UniProt Q05397); assay type: functional;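 note: measured as one member of a kinome panel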
[32] = biological target: Vascular endothelial growth factor receptor 2 (Homo sapiens, UniProt P35968); assay type: functional
[33] = biological target: Dual specificity tyrosine-phosphorylation-regulated kinase 1A (Homo sapiens, UniProt Q13627); assay type: functional;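 note: measured against DYRK1A as one member of a broad kinome profiling panel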
[34] = biological target: Tyrosine-protein kinase ABL1 (Homo sapiens, UniProt P00519); assay type: functional
[35] = biological target: Platelet-derived growth factor receptor beta (Homo sapiens, UniProt P09619); assay type: functional;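 note: value comes from a kinome panel, with PDGFRB tested as one panel member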
[36] = biological target: Death-associated protein kinase 3 (Homo sapiens, UniProt O43293); assay type: functional;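 note: measured as one member of a kinome-wide profiling panel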
[37] = biological target: Serine/threonine-protein kinase D3 (Homo sapiens, UniProt O94806); assay type: functional;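 note: determined within a kinase panel screen, with PRKCN as the panel member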
[38] = biological target: Dual specificity protein kinase CLK4 (Homo sapiens, UniProt Q9HAZ1); assay type: functional
[39] = biological target: Fibroblast growth factor receptor 1 (Homo sapiens, UniProt P11362); assay type: functional
[40] = biological target: Casein kinase I isoform alpha (Homo sapiens, UniProt P48729); assay type: functional
[41] = biological target: cAMP-dependent protein kinase catalytic subunit alpha (Homo sapiens, UniProt P17612); assay type: functional
[42] = biological target: Macrophage-stimulating protein receptor (Homo sapiens, UniProt Q04912); assay: Navigating the Kinome. Panel member name: MST1R; assay type: functional
[43] = biological target: Glycogen synthase kinase-3 beta (Homo sapiens, UniProt P49841); assay type: functional;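 note: value comes from a broad kinome profiling panel, with GSK3B as the panel member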
Sequence of Glycogen synthase kinase-3 beta (P49841 whole entry): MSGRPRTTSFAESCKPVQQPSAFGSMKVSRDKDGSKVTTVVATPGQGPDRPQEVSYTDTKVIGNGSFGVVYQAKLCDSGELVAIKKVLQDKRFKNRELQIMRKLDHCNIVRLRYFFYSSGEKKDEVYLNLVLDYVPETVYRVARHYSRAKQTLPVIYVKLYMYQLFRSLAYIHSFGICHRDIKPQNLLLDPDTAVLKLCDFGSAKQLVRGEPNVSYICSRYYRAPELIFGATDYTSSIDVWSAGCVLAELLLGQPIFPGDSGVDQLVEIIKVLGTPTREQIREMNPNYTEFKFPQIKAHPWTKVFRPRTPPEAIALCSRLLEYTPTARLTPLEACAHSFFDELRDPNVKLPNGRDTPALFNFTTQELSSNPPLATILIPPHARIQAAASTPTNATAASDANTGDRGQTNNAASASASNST

[44] = biological target: Cyclin-dependent kinase 9 (Homo sapiens, UniProt P50750); assay type: functional;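 note: value from the CDK9 entry of a kinome-spanning kinase panel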
[45] = biological target: Tyrosine-protein kinase JAK3 (Homo sapiens, UniProt P52333); assay type: functional
[46] = biological target: Tyrosine-protein kinase JAK2 (Homo sapiens, UniProt O60674); assay type: functional;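 note: JAK2 tested as one member of a kinase panel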
[47] = biological target: Dual specificity protein kinase CLK2 (Homo sapiens, UniProt P49760); assay type: functional
Sequence of Dual specificity protein kinase CLK2 (P49760 whole entry): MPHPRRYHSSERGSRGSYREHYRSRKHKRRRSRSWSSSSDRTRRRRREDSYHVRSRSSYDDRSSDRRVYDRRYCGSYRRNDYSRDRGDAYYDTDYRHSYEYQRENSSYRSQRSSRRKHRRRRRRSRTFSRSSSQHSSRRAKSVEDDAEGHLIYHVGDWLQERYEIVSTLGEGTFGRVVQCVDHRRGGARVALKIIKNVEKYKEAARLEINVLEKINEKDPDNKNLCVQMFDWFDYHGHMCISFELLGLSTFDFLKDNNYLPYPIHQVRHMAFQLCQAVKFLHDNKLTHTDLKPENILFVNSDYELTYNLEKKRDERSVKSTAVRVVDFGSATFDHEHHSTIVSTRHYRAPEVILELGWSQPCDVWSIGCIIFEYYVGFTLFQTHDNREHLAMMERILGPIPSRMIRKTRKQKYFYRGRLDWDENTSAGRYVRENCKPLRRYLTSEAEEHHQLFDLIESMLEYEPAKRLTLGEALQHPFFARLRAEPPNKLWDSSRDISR

[48] = biological target: Leucine-rich repeat serine/threonine-protein kinase 2 (Homo sapiens, UniProt Q5S007); assay type: functional;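 note: value from a broad kinome-wide panel profiling study in which LRRK2 was one of the kinases tested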
Aurora kinase A = Aurora kinase A (Homo sapiens, UniProt O14965); assay type: functional;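 note: value from the Navigating the Kinome kinase panel profiling, panel entry STK6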

Structure (SMILES): CC(C)CC(C(=O)N1CCc2ccccc2C1)N1C(=O)c2ccccc2C1=O (stereo not drawn)
EC50 [1]: 2.96 µM (active)
IC50 [2]: 5.55 µM (active)
IC50 (cells [3]): > 29.9 µM (inactive)
EC50 [4]: 22.4 µM (active)
EC50 (cells [5]): > 29.9 µM (inactive)

EC50 [6]: > 50 µM (inactive)
EC50 [7]: > 50 µM (inactive)
Structure (SMILES): CCCc1cc(C(=O)N(C2CCCCC2)C2CCCC2)no1

Ki [8]: 63.1 µM (active)
Ki [9]: 79.4 µM (active)
Ki [10]: 39.8 µM (active)
Ki [11]: 63.1 µM (active)
Ki [12]: 12.6 µM (active)
Ki [13]: 20 µM (active)
Ki (Activated CDC42 kinase 1): 25.1 µM (active)
Ki [14]: 50.1 µM (active)
Ki [15]: 39.8 µM (active)
Ki [16]: 50.1 µM (active)
Ki [17]: 12.6 µM (active)
Ki [18]: 63.1 µM (active)
Ki [19]: 79.4 µM (active)
Ki [20]: 100 µM (active)
Ki [21]: 15.8 µM (active)
Ki [22]: 31.6 µM (active)
Ki [23]: 79.4 µM (active)
Ki [24]: 15.8 µM (active)
Ki [25]: 31.6 µM (active)
Ki (Activin receptor type-1): 39.8 µM (active)
Ki (Aurora kinase B): 15.8 µM (active)
Ki [26]: 10 µM (active)
Ki [27]: 5.01 µM (active)
Ki [28]: 5.01 µM (active)
Ki [29]: 63.1 µM (active)
Ki [30]: 15.8 µM (active)
Ki [31]: 50.1 µM (active)
Ki (Focal adhesion kinase 1): 79.4 µM (active)
Ki [32]: 25.1 µM (active)
Ki [33]: 39.8 µM (active)
Ki [34]: 50.1 µM (active)
Ki [35]: 12.6 µM (active)
Ki [37]: 63.1 µM (active)
Ki [38]: 1.58 µM (active)
Ki [39]: 25.1 µM (active)
Ki [40]: 10 µM (active)
Ki [41]: 10 µM (active)
Ki [42]: 31.6 µM (active)
Ki [43]: 50.1 µM (active)
Ki [44]: > 63.1 µM (inactive)
Ki [45]: 63.1 µM (active)
Ki [46]: 31.6 µM (active)
Ki [47]: 25.1 µM (active)
Ki [48]: 2 µM (active)
Ki (Aurora kinase A): 39.8 µM (active)
Structure (SMILES): Fc1cccc(CNc2ncnc3nc[nH]c23)c1
Ki [36]: 31.6 µM (active)
